{"source": "patent US20230103300A1", "about": "“TOPICAL PHARMACEUTICAL COMPOSITION IN GEL FORM COMPRISING AT LEAST AMI[…] USE IN THE TREATMENT OF CORONAVIRUS-INDUCED NEUROPATHIC PAIN” (AlgoTherapeutix, priority 2021, published 2023)", "assay": "Comparative ex vivo study of the percutaneous absorption of amitriptyline (Frantz cell)", "assay_type": "in vitro ADME", "details": "ex vivo human skin, topical application", "experimental": "Comparative ex vivo study of the percutaneous absorption of amitriptyline in a formulation A in aqueous gel form (invention) and in a formulation B in cream form (comparative).\nEach of compositions A and B was applied on separate human skin samples. For each composition, the experiment was repeated 3 times with 3 skin samples from 3 different donors, i.e., 9 samples.\nThe skin samples are mounted in a Frantz cell and are heated to a surface temperature of 32° C.±1° C.\nComposition A or B is spread evenly using a spatula on each skin sample at a rate of 10 mg per cell, corresponding to 5 mg/cm^2 of skin.\nThe skin samples are rinsed 16 hours after application.\nEach skin sample was placed with a tweezers on a paper towel (dermis facing downward).\nThe stratum corneum is removed using adhesive strips.\nAfter removing the stratum corneum, the sample is perforated. The epidermis is then separated from the dermis. Each of them is placed in separate bottles.\nThe different samples were then extracted."}
{"smiles": "CN(C)CCC=C1c2ccccc2CCc2ccccc21", "note": "[amitriptyline, Amitriptyline]", "values": [{"measurement": "systemic passage of amitriptyline", "result": "less than 0.1 % of the administered dose"}]}
